# Where a name gives a salt, the structure may show the parent alone.
# How the values were obtained:
# [1] = In vivo release test, DOX concentration in blood after subcutaneous administration; parameters: species or system Male Sprague Dawley rats; settings: rat, 1 mg DOX in normal saline subcutaneously, ~20 mL blood in a rat
# Description: Male Sprague Dawley rats (8 weeks, average weight 250 g) were stabilized for 1 week with free access to food and water. Microcontainers loaded with DOX were subcutaneously administered into the rats at a level of 3.7 mg/Kg (10 mg microspheres containing 1 mg DOX were freshly dispersed in 0.5 mL of normal saline solution for each rat). […] The blood samples were separated by centrifugation at 2000 g at 4° C. for 10 min and the obtained plasma samples were then stored at −20° C. prior to analysis. Just before the DOX extraction, the plasma samples were thawed followed by adding 3 ml of 70% ethanol and 30% 0.45 M HCl aqueous solution by volume. The obtained suspensions were mixed for 30 s to form gels. These gels were first stored at 4° C. for 24 hours in dark, and then centrifuged at 10,000 g for 15 min. The supernatants were transferred into glass cuvettes and allowed to warm to room temperature for the determination of DOX concentration by a fluorescence spectrophotometer.
# [2] = cited from earlier work
SMILES,DOX concentration level that can be reached in blood [1],solubility in water ([2]; water),stability versus pH ([2]; pH of more than 6.5)
"COc1cccc2c1C(=O)c1c(O)c3c(c(O)c1C2=O)C[C@@](O)(C(=O)CO)C[C@@H]3O[C@H]1C[C@H](N)[C@H](O)[C@H](C)O1 [DOX, Doxorubicin hydrochloride]",50 µg/mL,10000 µg/mL,
"COc1cccc2c1C(=O)c1c(O)c3c(c(O)c1C2=O)C[C@@](O)(C(=O)CO)C[C@@H]3O[C@H]1C[C@H](N)[C@H](O)[C@H](C)O1 [Doxorubicin, doxorubicin]",,,unstable
